From patent US20080113926A1, “9A-Carbamoyl-Y-Aminopropyl- And 9A-Thiocabamoyl-Y-Aminopropyl-Azalides With Antimalarial Activity” (priority 2005, published 2008)
Values after ≈ are worked out from the molar mass of the structure shown.

How the values were obtained:
[1] = tested on: Plasmodium falciparum clone CDC/Sierra Leone I (D-6); experiment: In vitro antimalarial [3H]-hypoxanthine incorporation serial dilution assay, D6; type: cell-based; details: Plasmodium falciparum; P. falciparum D6, parasites exposed for 72 hours
Excerpt: (§1) The in vitro screens for intrinsic antimalarial activity were based on modifications of the procedures described by Desjardins R E, Canfield C J, Haynes J D, Chulay J D. (Quantitative assessment of antimalarial activity in vitro by a semiautomated microdilution technique. Antimicrob Agents Chemother. 1979 December; 16(6):710-8), Chulay J D, Haynes J D, Diggs C L. (Plasmodium falciparum: Assessment of in vitro growth by [3H]hypoxanthine incorporation. Exp. Parasitol. 1983 55:138-146), and Milhous W K, Weatherly N F, Bowdre J H, Desjardins R E. (In vitro activities of and mechanisms of resistance to antifol antimalarial drugs. Antimicrob Agents Chemother. 1985 April; 27(4):525-30). The system was limited to the assessment of the intrinsic activity against the erythrocytic asexual life cycle (blood schizontocides). Two Plasmodium falciparum clones from CDC/Indochina III (W-2) and CDC/Sierra Leone I (D-6) (Oduola A M, Weatherly N F, Bowdre J H, Desjardins R E. Plasmodium falciparum: cloning by single-erythrocyte micromanipulation and heterogeneity in vitro. Exp Parasitol. 1988 66(1):86-95) were used for all assays. TM91C235, a multiple drug resistant isolate from Thailand, was used for the prescreening assay. W-2 is resistant to chloroquine, quinine, and pyrimethamine and susceptible to mefloquine. D-6 tends to be more resistant to mefloquine and susceptible to chloroquine, quinine, and pyrimethamine. All documents cited in this paragraph are incorporated by reference in their entirety.
(§2) All parasites were maintained in continuous long term cultures in RPMI-1640 medium supplemented with 6% washed human A positive (A+) (erythrocytes, 25 mM Hepes, […], and 10% heat inactivated A+ human plasma or ALBUMAX® (lipid-rich bovine serum albumin; Invitrogen, Carlsbad, Calif.). All cultures and assays were conducted at 37° C. under an atmosphere of 5% CO2 and 5% O2, with a balance of N2.
(§3) The prescreening assay uses TM91C235 diluted at a 0.4% parasitemia in a 1% hematocrit in folic acid free and p-aminobenzoic acid free media RPMI-1640 and ALBUMAX®. One mg of the compound is typically dissolved in 100 μl of dimethyl sulfoxide (DMSO). The compound is further diluted in culture medium (FF) with ALBUMAX® for the first initial starting concentration. The rest of the stock drug solution was kept at −70° C. The isolate was preexposed, in duplicate, at three concentrations (25,000 ng/ml, 2,500 ng/ml, and 25 ng/ml) of the test compound for 48 hr in a 96-well microtiter plate (MTP) using the BIOMEK® 2000 automated laboratory workstation. Each MTP contains chloroquine as control to assess the relative activity of the compound and to monitor the response of TM91C235.
(§4) After the preincubation, [^3H]-hypoxanthine was added to each well of the MTP. (The assay relies on the incorporation of radiolabeled hypoxanthine by the parasites, which indicates reproduction, and inhibition of isotope incorporation was attributed to activity of known or candidate antimalarial drugs). After 72 hr of total incubation time, the MTP were frozen to lyse the erythrocytes and parasites. The parasite DNA was recovered by harvesting the lysate onto glass-fiber filter plates using a Packard FilterMate™ Cell Harvester. The radioactivity was counted on a Packard TopCount™ microplate scintillation counter. The results were recorded as counts per minutes (CPM) per well at each drug concentration divided by the arithmetic mean of the CPM from the three untreated infection parasite control wells.
(§5) The serial dilution assay was conducted using the same assay conditions and stock solution of the compound used for the preliminary screen, described above. Both the D-6 and the W-2 clones were used. The compounds were diluted two-fold over 11 different concentration ranges with a starting concentration that was based on the preliminary screen. […]

[2] = tested on: Plasmodium falciparum clone CDC/Indochina III (W-2); experiment: In vitro antimalarial [3H]-hypoxanthine incorporation serial dilution assay, W2; type: cell-based; details: Plasmodium falciparum, W2, 72 h, P. falciparum W2, parasites exposed for 72 hours
Excerpt: as §1, §2, §3, §4, §5

[3] = tested on: Plasmodium cynomolgi; details: rhesus monkey; cited from earlier work
[4] = tested on: Plasmodium falciparum; details: non-immune patients, as compared to controls; cited from earlier work
[5] = tested on: Plasmodium vivax; details: non-immune patients, as compared to controls; cited from earlier work
[6] = tested on: Plasmodium falciparum TM91C235; experiment: In vitro antimalarial [3H]-hypoxanthine incorporation serial dilution assay, TM91C235; type: cell-based; details: Plasmodium falciparum; P. falciparum TM91C235, parasites exposed for 72 hours
[7] = tested on: Plasmodium berghei; details: cited from earlier work
[8] = tested on: Plasmodium yoelii nigeriensis; details: cited from earlier work

CC[C@H]1OC(=O)[C@H](C)[C@@H](O[C@H]2C[C@@](C)(OC)[C@@H](O)[C@H](C)O2)[C@H](C)[C@@H](O[C@@H]2O[C@H](C)C[C@H](N(C)C)[C@H]2O)[C@](C)(O)C[C@@H](C)CN(C)[C@H](C)[C@@H](O)[C@]1(C)O [azithromycin, reference compound]
IC50 [1]: 0.797 mg/L (≈ 1.06 µM)
IC50 [2]: 1.76 mg/L (≈ 2.35 µM)
efficacy in monkey model [3]: active
prophylactic efficacy for Plasmodium falciparum [4]: 71.6%
prophylactic efficacy for Plasmodium vivax [5]: 98.9%
IC50 [6]: 1.62 mg/L (≈ 2.16 µM)

midecamycinin
activity in mouse model, Plasmodium berghei [7]: active
efficacy in monkey model [3]: no efficacy
activity in mouse model, Plasmodium yoelii nigeriensis [8]: active
